{"source": "patent US20240247250A1", "about": "“COMPOSITIONS AND METHODS FOR MODIFYING DNA” (The Regents of the University of California, priority 2021, published 2024)", "target": "tRNA guanine transglycosylase (TGT) (Escherichia coli, UniProt P0A847)", "sequence (P0A847 whole entry)": "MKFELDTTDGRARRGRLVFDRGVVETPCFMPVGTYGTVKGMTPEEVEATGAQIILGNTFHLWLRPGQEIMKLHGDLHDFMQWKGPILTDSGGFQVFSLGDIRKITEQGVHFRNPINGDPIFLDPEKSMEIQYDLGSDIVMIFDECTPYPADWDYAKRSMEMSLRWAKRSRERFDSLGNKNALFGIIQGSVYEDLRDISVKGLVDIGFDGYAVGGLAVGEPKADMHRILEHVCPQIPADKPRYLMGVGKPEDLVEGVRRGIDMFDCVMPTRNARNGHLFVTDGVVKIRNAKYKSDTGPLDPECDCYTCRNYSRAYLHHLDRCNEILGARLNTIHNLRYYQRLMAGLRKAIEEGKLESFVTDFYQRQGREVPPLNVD", "assay": "TGT labeling of DNA/RNA hairpin oligos with PreQ1 probes, urea PAGE gel shift", "assay_type": "biochemical, E. coli", "conditions": "for labeling of the representative DNA hairpin substrate by functional PreQ1 probes: urea PAGE gel shift assays; for labeled product: 17 nucleotide DNA hairpins derived from cognate tRNA anticodon loops; for turn over by TGT: extended stem DNA analog of ECYA1 with minimal recognition element mutations, denaturing urea PAGE shift and intensity", "key": {"[1]": {"conditions": "urea PAGE gel shift and intensity"}}, "note": "“Also recorded” adds a separate entry of the source.", "data": [{"molecule": "TAMRA", "values": [{"measurement": "labeling of the representative DNA hairpin substrate by functional PreQ1 probes", "value": "Quantitative labeling"}]}, {"molecule": "Nc1nc2[nH]cc(CNCCCCCCNC(=O)CCCCC3SCC4NC(=O)NC43)c2c(=O)[nH]1", "note": "(stereo not shown) [PreQ1-biotin]", "values": [{"measurement": "labeling of the representative DNA hairpin substrate by functional PreQ1 probes", "value": "Quantitative labeling"}]}, {"molecule": "CCTGCCTGTCACGCAGG", "values": [{"measurement": "labeled product", "setting": "[1]", "value": "~40", "unit": "%"}]}, {"molecule": "CTGGATTGTGATTCCAG", "values": [{"measurement": "labeled product", "setting": "[1]", "value": "~40", "unit": "%"}]}, {"molecule": "Alexa Fluor 647", "values": [{"measurement": "labeling of the representative DNA hairpin substrate by functional PreQ1 probes", "value": "Quantitative labeling"}]}, {"molecule": "GGGAGCAGACUGUAAATCTGCTCCC [dUdGdU]", "values": [{"measurement": "turn over by TGT", "setting": "PreQ1-biotin probe", "value": "comparable turn over to the wildtype RNA substrate"}]}, {"molecule": "GGGAGCAGACTGTAAATCTGCTCCC [dTdGdT]", "values": [{"measurement": "turn over by TGT", "setting": "PreQ1-biotin probe", "value": "no appreciable turn over"}]}, {"molecule": "CTGGACTGTCACTCCAG [His(stem)-Asp(loop)]", "values": [{"measurement": "labeling efficiency", "setting": "composite hairpins with swapped stems and loops, urea PAGE gel shift and intensity", "value": "over 50%"}]}, {"molecule": "GCAGACTGTAAATCTGC [tyrosine based counterpart]", "values": [{"measurement": "labeled product", "setting": "[1]", "value": "~-5", "unit": "%"}]}, {"molecule": "GGGAGCAGACTGUAAATCTGCTCCC [dTdGdU]", "values": [{"measurement": "turn over by TGT", "setting": "PreQ1-biotin probe", "value": "comparable turn over to the wildtype RNA substrate"}]}, {"molecule": "GGGAGCAGACUGTAAATCTGCTCCC [dUdGdT]", "values": [{"measurement": "turn over by TGT", "setting": "PreQ1-biotin probe", "value": "no appreciable turn over"}]}, {"molecule": "CTGGATTGTCCTTCCAG [SEQ ID NO:21]", "values": [{"measurement": "labeling with PreQ1-biotin confirmed by LCMS", "setting": "LCMS analysis of PreQ1-biotin labeled sequence", "value": "efficient labeling"}, {"measurement": "labeling of hairpin or loop sequence appended to longer ssDNA", "setting": "PreQ1-biotin probe, urea PAGE gel shift, listed as TAG2 DNA hairpin", "value": "can be modified internally; also recorded: can be modified at either end of a DNA sequence of interest"}]}]}
